The text below walks through data of ChEMBL document CHEMBL1139754, “Insect pest control agents: Novel chiral butanoate esters (juvenogens)” (Bioorg Med Chem, 2007).

The test system of the assay is Prorhinotermes. Put plainly: Juvenilizing activity against termite Prorhinotermes simplex at 0.5 mg m/L. Format: functional.
`CCCC(=O)O[C@H]1CCCC[C@@H]1Cc1ccc(OCCNC(=O)OCC)cc1` yielded an Activity of 65%. The value for `CCCC(=O)O[C@@H]1CCCC[C@@H]1Cc1ccc(OCCNC(=O)OCC)cc1` was 65%; that for `CCCC(=O)O[C@H]1CCCC[C@H]1Cc1ccc(OCCNC(=O)OCC)cc1` was 65%. The value for `CCCC(=O)O[C@@H]1CCCC[C@H]1Cc1ccc(OCCNC(=O)OCC)cc1` was 65%.
